# Reference: patent publication US11667651B2, “Aminopyridine derivatives as phosphatidylinositol phosphate kinase inhibitors” (HiberCell, Inc., priority 2017, dated 2023)
# What was measured:
# Format in all cases: biochemical
# [1] = molecular target: T1, PIP4K2B (Homo sapiens, UniProt P78356); experiment: Trans-FI P kinase assay PIP4K2B (Table 4); conditions: compounds listed under IC50 bins; read-out: Trans-FI P kinase assays: PIP4K2B IC50
# T1 construct: made in house; host or cells: E. coli
# T1 sequence (P78356 1-416): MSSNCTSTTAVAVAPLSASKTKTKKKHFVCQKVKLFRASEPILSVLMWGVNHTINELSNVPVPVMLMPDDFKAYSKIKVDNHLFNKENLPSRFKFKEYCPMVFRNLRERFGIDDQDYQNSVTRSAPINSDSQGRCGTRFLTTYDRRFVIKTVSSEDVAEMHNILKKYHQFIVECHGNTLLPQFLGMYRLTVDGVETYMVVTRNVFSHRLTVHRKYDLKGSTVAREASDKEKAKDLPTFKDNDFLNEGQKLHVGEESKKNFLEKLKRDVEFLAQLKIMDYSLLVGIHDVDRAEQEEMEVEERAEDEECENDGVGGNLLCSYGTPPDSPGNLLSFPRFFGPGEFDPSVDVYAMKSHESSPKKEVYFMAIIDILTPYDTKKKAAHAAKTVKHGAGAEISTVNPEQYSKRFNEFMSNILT
# Summary of the method: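 Transcreener FI detection (Ex 584/Em 623) of GDP, converted via calibration curve, gives IC50 from residual activity versus log concentration (highest 4.8 μM). Reaction: 80 μM PI5P plus DOPE carrier, 100 μM GTP, 5 nM GST-tagged enzyme, pH 7.3 HEPES with MgCl2 and 5% DMSO, 2 h after 1 h enzyme-compound preincubation at 27° C.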
# [2] = molecular target: T2, PIP4K2A (Homo sapiens, UniProt P48426); experiment: Kinase Assay PIP4K2 A (Table 2); parameters: 4 nM PIP4K2A (full length protein, SignalChem); purchased SignalChem; conditions: compounds listed under IC50 bins
# T2 sequence (P48426 1-406): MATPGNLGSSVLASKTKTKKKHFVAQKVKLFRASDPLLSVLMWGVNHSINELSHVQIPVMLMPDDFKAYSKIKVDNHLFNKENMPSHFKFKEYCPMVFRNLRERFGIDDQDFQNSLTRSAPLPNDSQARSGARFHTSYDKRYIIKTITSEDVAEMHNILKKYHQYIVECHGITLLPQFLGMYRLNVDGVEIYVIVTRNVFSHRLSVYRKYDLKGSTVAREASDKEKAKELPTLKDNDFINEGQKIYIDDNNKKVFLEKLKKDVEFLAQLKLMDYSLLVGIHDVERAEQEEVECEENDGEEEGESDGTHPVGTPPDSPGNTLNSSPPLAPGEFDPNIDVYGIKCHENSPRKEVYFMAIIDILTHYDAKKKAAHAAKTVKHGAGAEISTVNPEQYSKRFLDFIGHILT
# Summary of the method: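 ADP-Glo luminescent read-out after 1 h room-temperature kinase reaction, started with 60 μM ATP solution following 15 min compound pre-incubation. Enzyme/substrate mix: 4 nM full-length PIP4K2A plus 100 μM PI(5)P diC8; buffer MOPS pH 7.2 with 25 mM MgCl2 and Tween 20. IC50 from 10-point, 3-fold titrations normalized to DMSO.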
# [3] = molecular target: T2, PIP4K2A; experiment: ADP-glo kinase assay PIP4K 2A (Table 3); parameters: made in house; host or cells: E. coli; conditions: compounds listed under IC50 bins
# Summary of the method: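 ADP-Glo luminescence detected ADP after 1 h RT reaction started by ATP (60 μM solution) on full-length PIP4K2A (4 nM in mix) and PI(5)P diC8 (100 μM in mix), preceded by 15 min enzyme-compound preincubation in MOPS pH 7.2/25 mM MgCl2. Percent inhibition versus DMSO over 10 concentrations fitted for IC50.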
IC50 [1],IC50 [2],IC50 [3],Structure (SMILES)
10 to 100 nM,1 to 10 nM,1 to 10 nM,"CN(C)C(=O)c1ccc(-c2ccc(Nc3cnc4c(c3)N3C(=O)CC[C@H]3CO4)nc2)cc1 [Example 242, (S)-N,N-dimethyl-4-(6-((9-oxo-6a,7,8,9-tetrahydro-6H-pyrido[2,3-b]pyrrolo[1,2-d][1,4]oxazin-2-yl)amino)pyridin-3-yl)benzamide]"
10 to 100 nM,≤ 1 nM,1 to 10 nM,"CN(C)C(=O)c1ccc(-c2ccc(Nc3cncc(N4CCN(Cc5cccc(N)c5)C4=O)c3)nc2)cc1 [Example 223, 4-(6-((5-(3-(3-aminobenzyl)-2-oxoimidazolidin-1-yl)pyridin-3-yl)amino)pyridin-3-yl)-N,N-dimethylbenzamide]"
> 1000 nM,> 1000 nM,> 1000 nM,"CN(C)C/C=C/C(=O)NCC(=O)Nc1ccc(CN2CCN(c3cncc(Nc4ccc(-c5ccc(C(=O)N(C)C)cc5)cn4)c3)C2=O)cc1 [Example 229, (E)-4-(6-((5-(3-(4-(2-(4-(dimethylamino)but-2-enamido)acetamido)benzyl)-2-oxoimidazolidin-1-yl)pyridin-3-yl)amino)pyridin-3-yl)-N,N-dimethylbenzamide]"
10 to 100 nM,1 to 10 nM,1 to 10 nM,"O=C1CCCN1c1ccc(-c2ccc(Nc3cnc4c(c3)N(C(=O)C3CC3)CCO4)nc2)cc1 [Example 150, 1-(4-(6-((1-(cyclopropanecarbonyl)-2,3-dihydro-1H-pyrido[2,3-b][1,4]oxazin-7-yl)amino)pyridin-3-yl)phenyl)pyrrolidin-2-one]"
10 to 100 nM,1 to 10 nM,1 to 10 nM,"CC(O)C(=O)N1CCOc2ncc(Nc3ccc(-c4ccc(N5CCCC5=O)cc4)cn3)cc21 (stereo not drawn) [Example 234, 1-(4-(6-((1-(2-hydroxypropanoyl)-2,3-dihydro-1H-pyrido[2,3-b][1,4]oxazin-7-yl)amino)pyridin-3-yl)phenyl)pyrrolidin-2-one]"
10 to 100 nM,10 to 100 nM,100 to 1000 nM,"CN(C)C(=O)c1ccc(-c2ccc(Nc3cncc(NC(=O)CC#N)c3)nc2)cc1 [Example 122, 4-(6-((5-(2-cyanoacetamido)pyridin-3-yl)amino)pyridin-3-yl)-N,N-dimethylbenzamide]"
> 1000 nM,100 to 1000 nM,100 to 1000 nM,"CN(C)C(=O)c1ccc(-c2ccc(Nc3cnc4c(c3)OCO4)nc2)cc1 [Example 62, 4-(6-([1,3]dioxolo[4,5-b]pyridin-6-ylamino)pyridin-3-yl)-N,N-dimethylbenzamide]"
1 to 10 nM,1 to 10 nM,1 to 10 nM,"O=C1CCCN1c1ccc(-c2cnc(Nc3cnc4c(c3)N3C(=O)CC[C@H]3CO4)cc2C2CC2)cc1 [Example 178, (S)-2-((4-cyclopropyl-5-(4-(2-oxopyrrolidin-1-yl)phenyl)pyridin-2-yl)amino)-6,6a,7,8-tetrahydro-9H-pyrido[2,3-b]pyrrolo[1,2-d][1,4]oxazin-9-one]"
10 to 100 nM,10 to 100 nM,100 to 1000 nM,"CN(C)C(=O)c1ccc(-c2ccc(Nc3cnc4c(c3)OCCO4)nc2)cc1 [Example 50, 4-(6-((2,3-dihydro-[1,4]dioxino[2,3-b]pyridin-7-yl)amino)pyridin-3-yl)-N,N-dimethylbenzamide]"
10 to 100 nM,1 to 10 nM,1 to 10 nM,"CN(C)C(=O)c1ccc(-c2ccc(Nc3cncc(NC(=O)CCc4cccc(NC(=O)C5CCNCC5)c4)c3)nc2)cc1 [Example 109, N-(3-(3-((5-((5-(4-(dimethylcarbamoyl)phenyl)pyridin-2-yl)amino)pyridin-3-yl)amino)-3-oxopropyl)phenyl)piperidine-4-carboxamide]"
10 to 100 nM,10 to 100 nM,10 to 100 nM,"CN(C)C(=O)c1ccc(-c2ccc(Nc3cncc(NC(=O)c4cccc(NC(=O)CCOCCOCCN)c4)c3)nc2)cc1 [Example 113, 4-(6-((5-(3-(3-(2-(2-aminoethoxy)ethoxy)propanamido)benzamido)pyridin-3-yl)amino)pyridin-3-yl)-N,N-dimethylbenzamide]"
10 to 100 nM,10 to 100 nM,100 to 1000 nM,"CN(C)C(=O)c1ccc(-c2ccc(Nc3cncc(NC(=O)c4ccncc4)c3)nc2)cc1 [Example 130, N-(5-((5-(4-(dimethylcarbamoyl)phenyl)pyridin-2-yl)amino)pyridin-3-yl)isonicotinamide]"
10 to 100 nM,10 to 100 nM,100 to 1000 nM,"COc1ncc(Nc2ccc(-c3ccc(N4CCCC4=O)cc3)cn2)cc1NS(C)(=O)=O [Example 159, N-(2-methoxy-5-((5-(4-(2-oxopyrrolidin-1-yl)phenyl)pyridin-2-yl)amino)pyridin-3-yl)methanesulfonamide]"
10 to 100 nM,10 to 100 nM,100 to 1000 nM,"COCCC(=O)N1CCN(c2cncc(Nc3ccc(-c4ccc(N5CCCC5=O)cc4)cn3)c2)CC1 [Example 241, 1-(4-(6-((5-(4-(3-methoxypropanoyl)piperazin-1-yl)pyridin-3-yl)amino)pyridin-3-yl)phenyl)pyrrolidin-2-one]"
10 to 100 nM,10 to 100 nM,10 to 100 nM,"CNC(=O)Nc1cncc(Nc2ccc(-c3ccc(C(=O)N(C)C)cc3)cn2)c1 [Example 124, N,N-dimethyl-4-(6-((5-(3-methylureido)pyridin-3-yl)amino)pyridin-3-yl)benzamide]"
> 1000 nM,100 to 1000 nM,100 to 1000 nM,"O=C1C[C@H](O)CN1c1ccc(-c2ccc(Nc3cnc4c(c3)N3C(=O)CC[C@H]3CO4)nc2)cc1 [Example 237, (S)-2-((5-(4-((S)-4-hydroxy-2-oxopyrrolidin-1-yl)phenyl)pyridin-2-yl)amino)-6,6a,7,8-tetrahydro-9H-pyrido[2,3-b]pyrrolo[1,2-d][1,4]oxazin-9-one]"
10 to 100 nM,10 to 100 nM,100 to 1000 nM,"CN(C)C(=O)c1ccc(-c2ccc(Nc3cncc(NC(=O)CCc4cccc(NC(=O)OC(C)(C)C)c4)c3)nc2)cc1 [Example 101, tert-butyl (3-(3-((5-((5-(4-(dimethylcarbamoyl)phenyl)pyridin-2-yl)amino)pyridin-3-yl)amino)-3-oxopropyl)phenyl)carbamate]"
> 1000 nM,> 1000 nM,> 1000 nM,"COc1ncc(Nc2ccc(-c3ccc(N4CCCC4=O)cc3)cn2)cc1N(C)C(C)=O [Example 160, N-(2-methoxy-5-((5-(4-(2-oxopyrrolidin-1-yl)phenyl)pyridin-2-yl)amino)pyridin-3-yl)-N-methylacetamide]"
10 to 100 nM,1 to 10 nM,1 to 10 nM,"CN(C)C(=O)c1ccc(-c2ccc(Nc3cncc(NC(=O)C4CC4c4ccccc4)c3)nc2)cc1 (stereo not drawn) [Example 138, N,N-dimethyl-4-(6-((5-(2-phenylcyclopropane-1-carboxamido)pyridin-3-yl)amino)pyridin-3-yl)benzamide]"
10 to 100 nM,10 to 100 nM,10 to 100 nM,"O=C1CCCN1c1ccc(-c2ccc(Nc3cncc(N4CCN(Cc5cnco5)C4=O)c3)nc2)cc1 [Example 166, 1-(oxazol-5-ylmethyl)-3-(5-((5-(4-(2-oxopyrrolidin-1-yl)phenyl)pyridin-2-yl)amino)pyridin-3-yl)imidazolidin-2-one]"
10 to 100 nM,100 to 1000 nM,100 to 1000 nM,"CN(C)C(=O)c1ccc(-c2ccc(Nc3cncc(NC(=O)CCc4cccc(NC(=O)CN)c4)c3)nc2)cc1 [Example 107, 4-(6-((5-(3-(3-(2-aminoacetamido)phenyl)propanamido)pyridin-3-yl)amino)pyridin-3-yl)-N,N-dimethylbenzamide]"
